Row | SMILES | melting point [°C]
1 | CC(C)c1nc(CCOC(N)=O)n(Cc2ccccc2N)c1Sc1cc(Cl)cc(Cl)c1 | 167 to 170
2 | COc1cc(OCc2cccnc2)ccc1/C=C/c1cc(/C=C/c2c[nH]c3ccccc23)n[nH]1 | 129 to 137
3 | CCc1cc(C)cc(C)c1NC(=S)NC(C)(C)CC | 105 to 107
4 | CCc1c(NC(=O)c2ccc(Br)cc2)ccc2cc(CN3CCCC3)cnc12 | 230 to 231
5 | Cc1noc(NS(=O)(=O)c2ccccc2-c2ccc(-c3ncco3)cc2CN(CC(F)(F)F)C(C)C)c1C | 80 to 90
6 | CCCc1nc(-c2ncn3c2COC(=O)c2c(Cl)cccc2-3)no1 | 130 to 132
7 | Cc1ccc(S(=O)(=O)OCCc2ccccc2Br)cc1 | 39 to 39.5
8 | O=C1C=C(c2ccccc2)CC(C(=O)O)C1 (centres undefined) | 140 to 160
9 | CCOC(=O)C1n2c3ccccc3c3c4c(c5c6ccccc6n(c5c32)CS1(=O)=O)C(=O)NC4=O (centres undefined) | 298 to 300
10 | COC(=O)c1cc(N)c(N2CCCCC2)c(S(C)(=O)=O)c1 | 178 to 179
11 | CC(C)(NC=O)c1ccc(I)cc1 | 121 to 125
12 | CS(=O)c1ccc(-c2nn(Cc3ccc(Cl)cc3Cl)c(=O)cc2-c2ccc(Cl)cc2)cc1 (centres undefined) | 236 to 237
13 | CCCCc1c(/C=C/C(=O)OC)cc(OC)c2ccccc12 | 63 to 64
14 | COC(=O)Nc1nc(-c2ccccc2)c(-c2nc3ccccc3c(=O)n2-c2ccc(Cl)cc2)s1 | > 275
15 | CC(=O)Nc1cccc(-c2nn(Cc3oc4ccccc4c(=O)c3-c3ccccc3)c3ncnc(N)c23)c1 | 122 to 123
16 | COc1ccc(CN2C(C(=O)Nc3ccccn3)=C(O)c3sc4ccccc4c3S2(=O)=O)cc1 | 188 to 190
17 | O=C(NCCCN1CCOCC1)Nc1nc2ccc(OCc3c(Cl)cccc3Cl)cc2s1 | 162 to 166
18 | Cn1cc(C(=O)c2cnc[nH]2)cc1C(=O)c1ccc(Cl)cc1 | 198 to 200
19 | CCOC(=O)COc1ccccc1Cn1c(-c2ccc(C(F)(F)F)cc2)c(C)c2cc(OCc3ccccc3)ccc21 | 221
20 | COc1ccc(CN(C)CCCc2ccc(NC(=O)c3cccc4c(=O)c5cccc(OC)c5[nH]c34)cc2)cc1OC | 180
21 | CN(CCN(C)C1=C(O)C(=O)c2ccccc2C1=O)Cc1ccccc1 | 121 to 123
22 | CC(=O)c1c(O)cc(C)cc1O | 146 to 148
23 | N#Cc1cc(NC(=O)c2sc3ccccc3c2Cl)ccc1N1CCC(N2CCOCC2)CC1 | 227 to 228

Row | SMILES | melting point [°C]
24 | N#Cc1nc(-c2nn(-c3c(Cl)cc(C(F)(F)F)cc3Cl)nc2Cl)[nH]c1C#N | 206 to 208
25 | O=C(CSc1nc[nH]n1)NC/C=C\COc1cc(CN2CCCCC2)ccn1 | 65 to 67
26 | O=C(CCBr)NCC(=O)c1ccccc1 | 114
27 | COC(=O)N1C2C3C=CC(C3OC(C)(C)C)C2N1C(=O)OC (centres undefined) | 86
28 | O=C(O)C1=Cc2cc(Oc3ccc(Cl)cc3)ccc2OC1C(F)(F)F (centres undefined) | 140 to 142
29 | CCOC1=Nc2ccc(Cl)cc2C(c2ccccc2Cl)=NC1OC (centres undefined) | 110 to 113
30 | Cc1nc2ccc(C(=O)NS(=O)(=O)c3ccccc3)nc2n1Cc1ccc(CCc2ccccc2)cc1Cl | 180 to 181
31 | CCCCCCCCCCCCCCOc1ccc(CC(=O)Nc2ccccc2CBr)cc1 | 100 to 103
32 | CCOC(=O)C(Cc1cccc2cccnc12)(NC=O)C(=O)OCC | 120 to 122
33 | CC(=O)c1c(O)c(=O)[nH]c2cc(Cl)ccc2c1=O | 254 to 256
34 | C[C@H](NC1=NS(=O)(=O)c2sc(Cl)cc2N1)c1ccccc1 | 195 to 204
35 | CCCC(CCC)C(=O)O[C@H]1CCC=C2C=C[C@H](C)[C@H](CC[C@@H]3C[C@@H](O)CC(=O)O3)[C@H]21 | 92 to 94
36 | CCOP(=O)(OCC)c1nc(N2CCOCC2)nc(N2CCOCC2)n1 | 114 to 116
37 | CC(=O)OCCn1nc(-c2cc(C(C)(C)C)c(O)c(C(C)(C)C)c2)c2cccnc21 | 115 to 116
38 | COc1cccc(CC(CS)C(=O)Nc2c[nH]c(C(=O)O)c2)c1 (centres undefined) | 153 to 158
39 | CC(C)(C)c1cc(C=C2SCN(CC(N)=O)C2=O)cc(C(C)(C)C)c1O | 232
40 | N#Cc1cc([N+](=O)[O-])ccc1N1CCC(O)CC1 | 114 to 115
41 | COC(=O)c1c(C2=NC(C)(C(C)C)C(=O)N2)cccc1[N+](=O)[O-] (centres undefined) | 159 to 162
42 | C1=C(OCc2ccccc2)CCN(Cc2nc3ccccc3[nH]2)C1 | 170 to 172
43 | NCCNC(=O)c1ccc2c(c1)OCO2 | 120 to 123
44 | CN1C(=S)COC1=Nc1cccc(C(F)(F)F)c1 | 84 to 86
45 | Cc1ccc(Oc2cnc(C#N)c(C#N)n2)cc1 | 126 to 127
46 | O=P(O)(O)C(O)(CCc1ccc(Cl)c(Cl)c1)P(=O)(O)O | 187

Row | SMILES | melting point [°C]
47 | Cc1cccc2c(-c3ccc(Br)cc3)nccc12 | 126 to 128
48 | CCCC(Cl)(Cl)C(NC(=O)c1ccc(Cl)cc1)NC(=C[N+](=O)[O-])Nc1cccnc1 (centres undefined) | 185 to 186
49 | CN(C)C(=O)c1csc(N(C)CC#CI)n1 | 148 to 150
50 | COc1cc(S(C)(=O)=O)c(F)cc1OCCCl | 85 to 87
51 | CC(C)(C)C(NC(=O)Cc1ccc(Cl)cc1)NC(=NC#N)Nc1cccc2cnsc12 (centres undefined) | 135 to 137
52 | Cn1cc(-c2cc3cccnc3[nH]2)c2cc(C(=O)NCCC(N)=O)ccc21 | 286 to 288
53 | Cc1c(NC(=O)c2ccc(-c3ccc(F)cc3)cc2)ccc2cc(CN3CCCC3Cc3ccccc3)cnc12 (centres undefined) | 172 to 174
54 | Cc1noc(NS(=O)(=O)c2ccccc2-c2cc3ccccc3n2S(=O)(=O)c2ccccc2)c1C | 207 to 209
55 | CC(C)C1=C(C#N)C(c2cccc(Cl)c2Cl)c2c[nH]nc2N1 (centres undefined) | > 250
56 | CC(C)(COc1nn2ccnc2c2c1CCCC2)CS(N)(=O)=O | 198 to 200
57 | Cn1ncc(C(=O)N2CCOCC2)c1C(=O)Nc1ccn2nc(-c3ccccc3)nc2c1 | 203 to 207
58 | O=C(Nc1ccccc1)Oc1cc(N2C(=O)C3=C(CCCC3)C2=O)c(F)cc1Cl | 149 to 151
59 | CC(C)(C(=O)O)C1(c2ccc(Cl)cc2)CCC1 | 95 to 110
60 | Cc1cc(C)nc(NCCN(C(C)C)C(C)C)n1 | 79.5 to 82
61 | NC(=O)CCN1CCN(C(=O)c2cc(C(F)(F)F)cc(C(F)(F)F)c2)[C@H](Cc2c[nH]c3ccccc23)C1 | 80 to 100
62 | COC1C(CO)OC(n2c3ccc(C=O)cc3c3c4c(c5c6cc(C=O)ccc6[nH]c5c32)C(=O)NC4=O)C(O)C1O (centres undefined) | > 300
63 | CC(C)N(Sc1nc2ccccc2s1)C(C)C | 57 to 59
64 | CC(C)NCC(O)Cc1ccc([N+](=O)[O-])c(C2OCCO2)c1 (centres undefined) | 97 to 99
65 | O=C1c2ccccc2C(=O)N1c1n[nH]c2ccc(O)cc12 | > 270
66 | COC(=O)c1ccc(CC(C)NCC(O)c2ccc(O)c(CO)c2)cc1O (centres undefined) | 81 to 83
67 | Cc1c(C)c2c(c(C)c1NS(C)(=O)=O)CC(C)(C)O2 | 159 to 160
68 | O=C(Nc1cccc2c1C(=O)c1c-2n[nH]c1-c1ccc(N2CCNCC2)cc1)NN1CCC[C@@H]1CO | 190
69 | CCn1c(N)c(C(=O)NC)c(=O)c2ccc(Cl)nc21 | 283 to 286
